pIC50: −log10 of the molar value.
Legend:
[1] = tested on: NCI-H1963 cells; assay: NCI-H1963 cell proliferation assay (CellTiter-Glo); type: cell-based; conditions: Homo sapiens, NCI-H1963, 72 h, read-out: H1963 (nM), CTG IC50
Experimental: Cell proliferation was measured using the CellTiter-Glo® Luminescent Cell Viability Assay. The assay involved the addition of a single reagent (CellTiter-Glo® Reagent) directly to cells cultured in serum-supplemented medium.
Each compound evaluated was prepared as a DMSO stock solution (10 mM). Compounds were tested in duplicate on each plate, with a 10-point serial dilution curve (1:3 dilution). Compound treatment (1.0 μL) was added from the compound dilution plate to the cell plate. The highest compound concentration was 10 μM (final), with a 0.1% final DMSO concentration. Plates were then incubated at 37° C., 5% CO2. After 48 h of compound treatment for RS4;11 or 72 h for NCI-H1963, cell plates were equilibrated at rt for approximately 30 mins. An equi-volume amount of CellTiter-Glo® Reagent (40 μL) was added to each well. […] Luminescence was recorded using a Envision plate reader according to CellTiter-Glo protocol. IC50 of each compound was calculated using GraphPad Prism by nonlinear regression analysis.

[2] = tested on: RS4;11 cells; assay: RS4;11 cell proliferation assay (CellTiter-Glo); type: cell-based; conditions: Homo sapiens, RS4-11, 48 h, read-out: RS4;11 (nM), CTG IC50
[3] = molecular target: Bcl-XL (Homo sapiens (Human), UniProt Q07817); assay: Bcl-XL HTRF assay (FAM-Bad peptide); type: binding; conditions: HTRF, 3 nM Bcl-XL, 40 nM FAM-Bad peptide; read-out: Bc1-XL IC50
Chain of Bcl-XL (Q07817 whole entry): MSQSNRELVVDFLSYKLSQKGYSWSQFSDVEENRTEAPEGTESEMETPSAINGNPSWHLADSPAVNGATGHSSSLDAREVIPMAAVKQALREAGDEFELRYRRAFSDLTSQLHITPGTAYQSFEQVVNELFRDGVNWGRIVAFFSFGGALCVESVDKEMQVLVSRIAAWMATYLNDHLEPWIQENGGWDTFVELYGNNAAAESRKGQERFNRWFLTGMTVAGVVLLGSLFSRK

[4] = molecular target: Bcl-2 (Homo sapiens (Human), UniProt P10415); assay: Bcl-2 HTRF assay (FAM-Bak peptide); type: binding; conditions: HTRF, 4 nM Bcl-2, 100 nM FAM-Bak peptide; read-out: Bc1-2 IC50
Chain of Bcl-2 (P10415 whole entry): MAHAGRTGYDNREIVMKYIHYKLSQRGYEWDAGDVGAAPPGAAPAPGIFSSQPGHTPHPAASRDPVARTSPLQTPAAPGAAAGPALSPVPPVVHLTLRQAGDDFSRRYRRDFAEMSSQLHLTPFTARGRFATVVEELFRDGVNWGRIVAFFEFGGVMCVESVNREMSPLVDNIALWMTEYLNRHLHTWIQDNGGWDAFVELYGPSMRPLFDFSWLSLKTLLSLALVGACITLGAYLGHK

Row | Structure (SMILES) | IC50 [1] [nM] | IC50 [2] [nM] | pIC50 [3] | pIC50 [4]
1 | CN(C)C1CCN(CC[C@H](CSc2ccccc2)Nc2ccc(S(=O)(=O)NC(=O)c3ccc(N4CCN(CC5=C(C67CC(C(F)F)(C6)C7)CC(C)(C)CC5)CC4)cc3)cc2S(=O)(=O)C(F)(F)F)CC1 [Example 62, (R)-4-(4-((2-(3-(Difluoromethyl)bicyclo[1.1.1]pentan-1-yl)-4,4-dimethylcyclohex-1-en-1-yl)methyl)piperazin-1-yl)-N-((4-((4-(4-(dimethylamino)piperidin-1-yl)-1-(phenylthio)butan-2-yl)amino)-3-((trifluoromethyl)sulfonyl)phenyl)sulfonyl)benzamide] | < 500 | 100 to 1000 | ≥ 8.00 | ≥ 8.00
2 | CN(C)CC[C@H](CSc1ccccc1)Nc1ccc(S(=O)(=O)NC(=O)c2ccc(N3CCN(CC4=C(C56CC(C(F)F)(C5)C6)CC(C)(C)CC4)CC3)cc2)cc1S(=O)(=O)C(F)(F)F [Example 63, (R)-4-(4-((2-(3-(Difluoromethyl)bicyclo[1.1.1]pentan-1-yl)-4,4-dimethylcyclohex-1-en-1-yl)methyl)piperazin-1-yl)-N-((4-((4-(dimethylamino)-1-(phenylthio)butan-2-yl)amino)-3-((trifluoromethyl)sulfonyl)phenyl)sulfonyl)benzamide] | < 500 | < 100 | ≥ 8.00 | ≥ 8.00
3 | CC1(C)CCC(CN2CCN(c3ccc(C(=O)NS(=O)(=O)c4ccc(N[C@H](CCN5CCNCC5)CSc5ccccc5)c(S(=O)(=O)C(F)(F)F)c4)cc3)CC2)=C(C23CC(C(F)F)(C2)C3)C1 [Example 64, (R)-4-(4-((2-(3-(difluoromethyl)bicyclo[1.1.1]pentan-1-yl)-4,4-dimethylcyclohex-1-en-1-yl)methyl)piperazin-1-yl)-N-((4-((1-(phenylthio)-4-(piperazin-1-yl)butan-2-yl)amino)-3-((trifluoromethyl)sulfonyl)phenyl)sulfonyl)benzamide] | > 1000 | 100 to 1000 | ≥ 8.00 | ≥ 8.00
4 | CCN(CCO)CC[C@H](CSc1ccccc1)Nc1ccc(S(=O)(=O)NC(=O)c2ccc(N3CCN(CC4=C(C56CC(C(F)F)(C5)C6)CC(C)(C)CC4)CC3)cc2)cc1S(=O)(=O)C(F)(F)F [Example 70, (R)-4-(4-((2-(3-(difluoromethyl)bicyclo[1.1.1]pentan-1-yl)-4,4-dimethylcyclohex-1-en-1-yl)methyl)piperazin-1-yl)-N-((4-((4-(ethyl(2-hydroxyethyl)amino)-1-(phenylthio)butan-2-yl)amino)-3-((trifluoromethyl)sulfonyl)phenyl)sulfonyl)benzamide] | > 1000 | 100 to 1000 | ≥ 8.00 | ≥ 8.00

From patent US11318134B2, “Benzamide compounds” (priority 2018, dated 2022)
